In ChEMBL document CHEMBL5518191, “Camptothecin structure simplification elaborated new imidazo[2,1-b]quinazoline derivative as a human topoisomerase I inhibitor with efficacy against bone cancer cells and colon adenocarcinoma” (Eur J Med Chem, 2024):
pIC50: −log10 of the molar value. Blank lines part the entries; values can stand above or below the compound they belong to. Calls of active or inactive are those of the source. The calls are words filed in the database; no cut-off is given here.

Assays:
HOS [1] = assay: Cytotoxicity against human HOS cells incubated for 48 hrs by MTT assay; type: functional, cell-based
[2] = target: T1, DNA topoisomerase 1 (Homo sapiens) (UniProt P11387); assay: Inhibition of human DNA topoisomerase 1 at 10 uM using supercoiled DNA as substrate incubated for 30 mins by EtBr staining based agarose gel electrophoresis method relative to control
T1 sequence (whole entry): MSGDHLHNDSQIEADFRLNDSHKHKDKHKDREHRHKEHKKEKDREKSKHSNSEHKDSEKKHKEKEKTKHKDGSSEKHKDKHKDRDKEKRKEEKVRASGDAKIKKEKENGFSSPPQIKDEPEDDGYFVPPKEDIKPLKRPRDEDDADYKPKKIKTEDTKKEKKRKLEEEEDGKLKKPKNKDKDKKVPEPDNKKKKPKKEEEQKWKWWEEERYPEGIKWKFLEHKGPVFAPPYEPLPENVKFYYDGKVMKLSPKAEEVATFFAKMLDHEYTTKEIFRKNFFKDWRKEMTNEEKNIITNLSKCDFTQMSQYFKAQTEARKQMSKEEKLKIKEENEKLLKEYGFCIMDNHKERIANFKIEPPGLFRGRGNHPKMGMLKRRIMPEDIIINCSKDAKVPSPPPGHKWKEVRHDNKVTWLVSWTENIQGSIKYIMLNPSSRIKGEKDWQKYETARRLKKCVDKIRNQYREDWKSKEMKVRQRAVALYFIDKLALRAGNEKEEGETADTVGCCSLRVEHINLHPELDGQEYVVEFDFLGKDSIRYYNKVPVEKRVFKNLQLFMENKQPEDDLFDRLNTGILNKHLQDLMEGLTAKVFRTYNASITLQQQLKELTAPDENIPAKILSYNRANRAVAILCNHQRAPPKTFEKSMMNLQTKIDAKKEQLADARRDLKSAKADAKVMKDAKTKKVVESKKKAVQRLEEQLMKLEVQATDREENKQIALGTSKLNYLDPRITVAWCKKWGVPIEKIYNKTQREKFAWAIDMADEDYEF

MDA-MB-231 = assay: Cytotoxicity against human MDA-MB-231 cells incubated for 48 hrs by MTT assay; type: functional, cell-based; settings: MDA-MB-231, 48 h
PC-3 = assay: Cytotoxicity against human PC-3 cells incubated for 48 hrs by MTT assay; type: functional, cell-based; settings: PC-3, 48 h
MCF7 = assay: Cytotoxicity against human MCF7 cells incubated for 48 hrs by MTT assay; type: functional, cell-based; settings: MCF7, 48 h
[3] = Cytotoxicity against human BJ cells incubated for 48 hrs by MTT assay; type: toxicity, cell-based
SAOS-2 = assay: Cytotoxicity against human SAOS-2 cells incubated for 48 hrs by MTT assay; type: functional, cell-based; settings: SAOS-2, 48 h
HCT-116 = assay: Cytotoxicity against human HCT-116 cells incubated for 48 hrs by MTT assay; type: functional, cell-based; settings: HCT-116, 48 h
DU-145 = assay: Cytotoxicity against human DU-145 cells incubated for 48 hrs by MTT assay; type: functional, cell-based; settings: DU-145, 48 h
PANC-1 = assay: Cytotoxicity against human PANC-1 cells incubated for 48 hrs by MTT assay; type: functional, cell-based; settings: PANC-1, 48 h
MG-63 = assay: Cytotoxicity against human MG-63 cells incubated for 48 hrs by MTT assay; type: functional, cell-based; settings: for pIC50: Homo sapiens, MG-63, 48 h, read-out: IC50
SK-OV-3 = assay: Cytotoxicity against human SK-OV-3 cells incubated for 48 hrs by MTT assay; type: functional, cell-based; settings: SK-OV-3, 48 h
[4] = Acute toxicity in Swiss albino mouse assessed as change in AST level at 200 mg/kg, po administered for 14 days; type: organism-based; settings: in vivo, 336 h, time 14 day
[5] = Acute toxicity in Swiss albino mouse assessed as change in ALT level at 200 mg/kg, po administered for 14 days; type: organism-based; settings: in vivo, 336 h, time 14 day
[6] = Acute toxicity in Swiss albino mouse assessed as change in GGT level at 200 mg/kg, po administered for 14 days; type: organism-based; settings: in vivo, 336 h, time 14 day
[7] = Acute toxicity in Swiss albino mouse assessed as change in ALT level at 1.47 uM/kg, po administered for 14 days; type: organism-based; settings: in vivo, 336 h, time 14 day
[8] = Acute toxicity in Swiss albino mouse assessed as change in AST level at 1.47 uM/kg, po administered for 14 days; type: organism-based; settings: in vivo, 336 h, time 14 day
HOS [9] = assay: Induction of apoptosis in human HOS cells assessed as late apoptotic cells at 5 uM incubated for 48 hrs by Annexin-V FITC/PI staining based flow cytometry analysis (reference value: 0.21%); type: functional
HOS [10] = assay: Induction of cell cycle arrest in human HOS cells assessed as accumulation of cells at pre-G1 phase after 48 hrs by flow cytometry analysis (reference value: 2.18 %); type: functional
[11] = Acute toxicity in Swiss albino mouse assessed as change in GGT level at 1.47 uM/kg, po administered for 14 days; type: organism-based; settings: in vivo, 336 h, time 14 day
[12] = Selectivity ratio of IC50 for human BJ cells to IC50 for human HOS cells
HOS [13] = assay: Induction of apoptosis in human HOS cells assessed as fold decrease in Her2 gene expression at 1.47 uM incubated for 48 hrs by RT-qPCR analysis relative to positive control; type: functional
HOS [14] = assay: Induction of apoptosis in human HOS cells assessed as fold increase in BAX gene expression at 1.47 uM incubated for 48 hrs by RT-qPCR analysis relative to positive control; type: functional
HOS [15] = assay: Induction of apoptosis in human HOS cells assessed as fold increase in p53 gene expression at 1.47 uM incubated for 48 hrs by RT-qPCR analysis relative to positive control; type: functional
HOS [16] = assay: Induction of apoptosis in human HOS cells assessed as fold decrease in BCL-2 gene expression at 1.47 uM incubated for 48 hrs by RT-qPCR analysis relative to positive control; type: functional
[17] = Antitumor activity against mouse C26 cells xenografted in BALB/c mouse assessed as decrease in tumor volume at 250 mg/kg, po after 5 weeks; type: functional, C-26; parameters: scale not given: the % may be the effect or the level left
HOS [18] = assay: Induction of apoptosis in human HOS cells assessed as early apoptotic cells at 5 uM incubated for 48 hrs by Annexin-V FITC/PI staining based flow cytometry analysis (reference value: 0.46%); type: functional
HOS [19] = assay: Induction of cell cycle arrest in human HOS cells assessed as accumulation of cells at G2/M phase after 48 hrs by flow cytometry analysis (reference value: 14.86 %); type: functional
HOS [20] = assay: Induction of apoptosis in human HOS cells assessed as necrotic cells at 5 uM incubated for 48 hrs by Annexin-V FITC/PI staining based flow cytometry analysis (reference value: 1.51%); type: functional
HOS [21] = assay: Cytotoxicity against human HOS cells cultured as 3D spheroids incubated for 120 hrs; type: functional, cell-based
C-26 = assay: Antitumor activity against mouse C26 cells xenografted in BALB/c mouse assessed as decrease in tumor volume at 250 mg/kg, po after 35 days; type: functional, organism-based; settings: time 35.0 day
HOS [22] = assay: Induction of cell cycle arrest in human HOS cells assessed as accumulation of cells at G0/G1 phase after 48 hrs by flow cytometry analysis (reference value: 52.39 %); type: functional
[23] = Antitumor activity against mouse C26 cells xenografted in BALB/c mouse assessed as decrease in tumor volume at 250 mg/kg, po after 1 week; type: functional, C-26; parameters: scale not given: the % may be the effect or the level left; settings: time 1 weeks
HOS [24] = assay: Induction of cell cycle arrest in human HOS cells assessed as accumulation of cells at S phase after 48 hrs by flow cytometry analysis (reference value: 32.75 %); type: functional

inhibition [2]: Active
SMILES: O=C1NC(=S)n2c1cc1ccccc1c2=O
pIC50 (HOS [1]): < 4.00 | pIC50 (MDA-MB-231): < 4.00 | IC50 at 48 h [3]: 258 µM | pIC50 (PC-3): < 4.00 | pIC50 (MCF7): 4.90

inhibition [2]: Active
SMILES: O=c1/c(=C\c2ccccc2)n2c(=O)c3ccccc3nc2n1CCN1CCOCC1
pIC50 (HOS [1]): 5.83 | Activity [7]: 22 U/L | Activity [8]: 19.5 U/L | Activity (HOS [9]): 23.58% | pIC50 (SAOS-2): 5.49 | Activity (HOS [10]): 39.61% | Activity [11]: 10.3 U/L | Ratio IC50 [12]: 2.89 | fold change (FC) (HOS [13]): 0.237 | pIC50 (MDA-MB-231): 5.22 | fold change (FC) (HOS [14]): 6.143 | pIC50 (HCT-116): 5.44 | fold change (FC) (HOS [15]): 4.907 | IC50 at 48 h [3]: 4.25 µM | pIC50 (PC-3): < 4.00 | fold change (FC) (HOS [16]): 0.146 | Activity [17]: 75.36% | Activity (HOS [18]): 3.22% | Activity (HOS [19]): 11.41% | Activity (HOS [20]): 12.81% | Activity (HOS [21]): Active | pIC50 (DU-145): 5.42 | pIC50 (PANC-1): 4.72 | Activity (C-26): Active | Activity (HOS [22]): 61.08% | pIC50 (MG-63): 4.75 | pIC50 (MCF7): 4.25 | pIC50 (SK-OV-3): 5.46 | Activity [23]: 35.5% | Activity (HOS [24]): 27.51%

Second part, the compound before the results:

SMILES: O=C1c2cc3ccccc3c(=O)n2C(=S)N1c1ccccc1
pIC50 (HOS [1]): < 4.00 | inhibition [2]: Active | pIC50 (MDA-MB-231): < 4.00 | pIC50 (PC-3): < 4.00 | pIC50 (MCF7): < 4.00

SMILES: O=c1c2ccccc2nc2n1c(=O)c1cc3ccccc3c(=O)n12
pIC50 (HOS [1]): < 4.00 | inhibition [2]: Active | pIC50 (MDA-MB-231): 4.15 | IC50 at 48 h [3]: 128 µM | pIC50 (PC-3): < 4.00 | pIC50 (MCF7): < 4.00

SMILES: CC[C@@]1(O)C(=O)OCc2c1cc1n(c2=O)Cc2cc3ccccc3nc2-1 [CAMPTOTHECIN]
pIC50 (HOS [1]): 7.31 | pIC50 (SAOS-2): 7.26 | pIC50 (MDA-MB-231): 6.97 | pIC50 (HCT-116): 7.29 | pIC50 (PC-3): 6.63 | pIC50 (DU-145): 7.38 | pIC50 (PANC-1): 6.63 | pIC50 (MG-63): 7.34 | pIC50 (MCF7): 6.49 | pIC50 (SK-OV-3): 6.62

SMILES: COc1cccc2c1C(=O)c1c(O)c3c(c(O)c1C2=O)C[C@@](O)(C(=O)CO)C[C@@H]3O[C@H]1C[C@H](N)[C@H](O)[C@H](C)O1 [DOXORUBICIN]
pIC50 (HOS [1]): 7.52 | pIC50 (SAOS-2): 6.84 | pIC50 (MDA-MB-231): 5.94 | pIC50 (PC-3): 6.25 | Activity [4]: 31 U/L | pIC50 (DU-145): 7.14 | Activity [5]: 60 U/L | pIC50 (PANC-1): 7.07 | IC50 (MG-63; mg-63): Not Active | Activity [6]: 13.7 U/L | pIC50 (MCF7): 8.00 | pIC50 (SK-OV-3): 7.48

SMILES: COc1cc2nc3n(c(=O)c2cc1OC)c(=O)c1cc2ccccc2c(=O)n13
pIC50 (HOS [1]): < 4.00 | inhibition [2]: Active | pIC50 (MDA-MB-231): < 4.00 | pIC50 (PC-3): < 4.00 | pIC50 (MCF7): < 4.00
